Consider nine molecules from US8945597B2, “Botanical insecticides” (priority 2012, dated 2015).

For one assay, the system named is Aphid nymphs (Aphis medicagini). In words: Insecticidal efficacy test against aphid nymphs (leaf disc dip). The assay is classed as in vivo. The settings on record: concentration 20 mg/L; leaf disc dipped 5 seconds; mortality after 24 hours. On the procedure: Insecticidal Efficacy Test Against Aphid Nymphs (Aphis medicagini)
Take the first preferred embodiment, diluted in water in two different concentrations, A with 1% weight content of active ingredients, B with 0.1% active ingredients. Vicia leaf cut into round disc in 2 cm diameter, back up placed on a small cotton ball, and then mounted in a Petri dish, 5 ml water is added. Mature aphids are transferred onto the leaf disc to hatch aphid nymphs. Mature aphids are removed after 24 hours and 20-30 aphid nymphs are left on the leave disc and continue to culture for one day. The leave disc with aphid nymphs is merged into solution A and B for 5 seconds, excessive fluid on the leaf surface is absorbed by paper tower. Leaf disc is then mounted back to the cotton ball for another 24 hours observation. Use Nitenpyram 20 mg/L for comparison and water as control.
In turn, `CCN(Cc1ccc(Cl)nc1)/C(=C/[N+](=O)[O-])NC` [Nitenpyram] yielded an MOTALITY % of 100%.

For another assay, the system named is planthopper nymphs (nilaparvata legen). As to the kind of experiment: Insecticidal efficacy test against planthopper nymphs (POTTER sprayer). The assay is classed as in vivo. The settings on record: concentration 20 mg/L; sprayed; mid 3rd instar nymphs; mortality after 72 hours. As for the experimental part: Insecticidal efficacy test against planthopper nymphs (nilaparvata legen). Some rice seedling leaves are mounted with white quartz sand in a Petri dish with 5 cm diameter containing 5 ml water. Planthoppers nymphs of mid 3rd instar were anesthetized by CO2. 20-30 anesthetized nymphs are transferred to each Petri dish and placed under the POTTER sprayer. Same amount of testing chemical is sprayed into each Petri dish and covered with transparent plastic cup. Use nitenpyram 20 mg/L for comparison and water as control.
`CCN(Cc1ccc(Cl)nc1)/C(=C/[N+](=O)[O-])NC` [Nitenpyram] gave an MOTALITY % of 100%.

The subject of the next assay is pest insects. As to the kind of experiment: Insecticidal properties of terpenes/terpenoids (test not described). Particulars: tested and proved; test details not given.
`C[C@@H]1CC[C@H]2C(C)(C)C3C[C@@]12CC[C@@]3(C)O` [Embodiment 8-epicedrol, 8-epicedrol]: the insecticidal properties result is listed as “significant insecticidal properties”.

With `CC(C)[C@@H]1CC[C@@H](C)C[C@H]1O` [3-p-menthanol], the insecticidal properties result was “significant insecticidal properties”.

For the molecule `Cc1ccc(C(C)C)cc1` [p-cymene], the insecticidal properties entry is “significant insecticidal properties”.

Turning to pinene, the insecticidal properties result was “significant insecticidal properties”.

As to ocimene, the insecticidal properties result is “significant insecticidal properties”.

Regarding `C=CCS[S@@+]([O-])CC=C` (stereo in doubt) [allicin], the insecticidal properties entry was “significant insecticidal properties”.

As to `C=C1CC/C=C(\C)CC[C@@H]2[C@@H]1CC2(C)C` [β-caryophyllene], the insecticidal properties entry is recorded as “significant insecticidal properties”.

Turning to `CC12CCC(CC1)C(C)(C)O2` [1,8-cineole], the insecticidal properties entry was “significant insecticidal properties”.
